Source: ChEMBL document CHEMBL1201862, “PubChem BioAssay data set” (2004)
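Following 48 hours of exposure in 96-well plates, responses at five concentrations were used to interpolate endpoints linearly. GI50 = concentration required for 50% inhibition of growth.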 Activity calls are given as the source filed them. No stated cut-off is given here; in the data, active = GI50 up to about 1.1 µM and inactive = higher.

Legend:
Experiment in all cases: NCI-60 cell line screen, 48 h
A498 = test system: A498
A549 = test system: A549
BT-549 = test system: BT-549
CAKI-1 = test system: CAKI-1
EKVX = test system: EKVX
HOP-62 = test system: HOP-62
IGROV-1 = test system: IGROV-1
MDA-MB-435 = test system: MDA-MB-435
MOLT-4 = test system: MOLT-4
NCI/ADR-RES = test system: NCI/ADR-RES
OVCAR-4 = test system: OVCAR-4
RPMI-8226 = test system: RPMI-8226
SK-MEL-2 = test system: SK-MEL-2
SK-OV-3 = test system: SK-OV-3
SNB-75 = test system: SNB-75
U-251 = test system: U-251
UACC-257 = test system: UACC-257
UACC-62 = test system: UACC-62
UO-31 = test system: UO-31

Row | SMILES | GI50 (A498) | GI50 (A549) | GI50 (BT-549) | GI50 (CAKI-1) | GI50 (EKVX) | GI50 (HOP-62) | GI50 (IGROV-1) | GI50 (MDA-MB-435) | GI50 (MOLT-4) | GI50 (NCI/ADR-RES) | GI50 (OVCAR-4) | GI50 (RPMI-8226) | GI50 (SK-MEL-2) | GI50 (SK-OV-3) | GI50 (SNB-75) | GI50 (U-251) | GI50 (UACC-257) | GI50 (UACC-62) | GI50 (UO-31)
1 | Cn1c2ccccc2c2c3c(c4c5ccccc5n(C)c4c21)C(=O)N(Cc1ccccc1)C3=O | 79.1 µM (inactive) | 90.2 µM (inactive) | > 100 µM (inactive) | > 100 µM (inactive) | > 100 µM (inactive) | 19.3 µM (inactive) | 53.3 µM (inactive) | > 100 µM (inactive) | > 100 µM (inactive) | > 100 µM (inactive) | > 100 µM (inactive) | > 100 µM (inactive) | > 100 µM (inactive) | > 100 µM (inactive) | > 100 µM (inactive) | > 100 µM (inactive) | > 100 µM (inactive) | > 100 µM (inactive) | > 100 µM (inactive)
2 | Cc1ccccc1/N=N/c1cc(C)c(/N=N/c2c(O)ccc3ccccc23)cc1C | > 100 µM (inactive) | > 100 µM (inactive) | > 100 µM (inactive) | > 100 µM (inactive) | > 100 µM (inactive) | > 100 µM (inactive) | > 100 µM (inactive) | > 100 µM (inactive) | > 100 µM (inactive) | > 100 µM (inactive) | > 100 µM (inactive) | > 100 µM (inactive) | > 100 µM (inactive) | > 100 µM (inactive) | 73.1 µM (inactive) | 99.3 µM (inactive) | > 100 µM (inactive) | > 100 µM (inactive) | > 100 µM (inactive)
3 | NNC(=O)Nc1nc2ccc(NN)cc2[nH]1 | 23.6 µM (inactive) | 74 µM (inactive) | 24 µM (inactive) | 41.7 µM (inactive) | 65.5 µM (inactive) | 44.4 µM (inactive) | 42 µM (inactive) | 21.5 µM (inactive) | 11.6 µM (inactive) | 47.8 µM (inactive) | 34.3 µM (inactive) | 7 µM (inactive) | 44 µM (inactive) | 40.2 µM (inactive) | 25.6 µM (inactive) | 37 µM (inactive) | 31.8 µM (inactive) | 21.1 µM (inactive) | 60.5 µM (inactive)
4 | NCCN(CCN)/[N+]([O-])=N/O | > 100 µM (inactive) | > 100 µM (inactive) | > 100 µM (inactive) | > 100 µM (inactive) | > 100 µM (inactive) | > 100 µM (inactive) | > 100 µM (inactive) | > 100 µM (inactive) | > 100 µM (inactive) | 82.8 µM (inactive) | > 100 µM (inactive) | > 100 µM (inactive) | > 100 µM (inactive) | > 100 µM (inactive) | > 100 µM (inactive) | > 100 µM (inactive) | > 100 µM (inactive) | > 100 µM (inactive) | > 100 µM (inactive)
5 | COC1=CC(=O)c2c(c(-c3csc(C)n3)cn2C)C1=O | 22.5 µM (inactive) | 2.15 µM (inactive) | 22.8 µM (inactive) | 29.3 µM (inactive) | 20 µM (inactive) | 30 µM (inactive) | 20.7 µM (inactive) | 13.8 µM (inactive) | 31.9 µM (inactive) | 22 µM (inactive) | 58.2 µM (inactive) | 5.24 µM (inactive) | 17.1 µM (inactive) | 57.3 µM (inactive) | 4.31 µM (inactive) | 69.7 µM (inactive) | 5.92 µM (inactive) | 12.1 µM (inactive) | 27 µM (inactive)
6 | CO/N=C1\CC(C)N2C(=O)C(C(C)C)NC(=O)C(NC(=O)c3c4nc5c(C(=O)NC6C(=O)NC(C(C)C)C(=O)N7C(C)CC(O)C7C(=O)N(C)CC(=O)N(C)C(C(C)C)C(=O)OC6C)ccc(C)c5oc-4c(C)c(=O)c3N)C(CO)OC(=O)C(C)N(C)C(=O)CN(C)C(=O)C12 (stereo unspecified) | 1.13 µM (inactive) | 0.815 µM (active) | 2.45 µM (inactive) | 4.54 µM (inactive) | 4 µM (inactive) | 1.57 µM (inactive) | 0.191 µM (active) | 0.824 µM (active) | 0.222 µM (active) | 16.6 µM (inactive) | 5.82 µM (inactive) | 0.0984 µM (active) | 0.308 µM (active) | 3.66 µM (inactive) | 0.883 µM (active) | 0.242 µM (active) | 0.65 µM (active) | 0.29 µM (active) | 2.23 µM (inactive)
7 | ClCCN(CCCl)c1ccc(/C=N/Nc2ccnc3ccccc23)cc1 | 20.3 µM (inactive) | 1.63 µM (inactive) | 2 µM (inactive) | 2.18 µM (inactive) | 2.39 µM (inactive) | 2.07 µM (inactive) | 1.65 µM (inactive) | 1.53 µM (inactive) | 1.13 µM (inactive) | 1.9 µM (inactive) | 1.85 µM (inactive) | 1.32 µM (inactive) | 2 µM (inactive) | 1.58 µM (inactive) | 2.17 µM (inactive) | 1.48 µM (inactive) | 1.84 µM (inactive) | 1.75 µM (inactive) | 1.86 µM (inactive)
8 | C#CCn1c(=O)c(C)cn(/C(=C\C(=O)OCC)C(=O)OCC)c1=O | 17.2 µM (inactive) | 20 µM (inactive) | 9.71 µM (inactive) | 1.36 µM (inactive) | 6.43 µM (inactive) | 20.5 µM (inactive) | 8.63 µM (inactive) | 5.16 µM (inactive) | 2.65 µM (inactive) | 3.86 µM (inactive) | 2.69 µM (inactive) | 2.8 µM (inactive) | 16.2 µM (inactive) | 28.6 µM (inactive) | 17.6 µM (inactive) | 8.11 µM (inactive) | 14.7 µM (inactive) | 10.1 µM (inactive) | 12.7 µM (inactive)
9 | CN1CCC(n2[nH]c(-c3ccccc3)c(Cc3ccccc3)c2=O)CC1 [BENZPIPERYLON] | 93.3 µM (inactive) | > 100 µM (inactive) | > 100 µM (inactive) | > 100 µM (inactive) | > 100 µM (inactive) | > 100 µM (inactive) | 59.7 µM (inactive) | > 100 µM (inactive) | 19.5 µM (inactive) | > 100 µM (inactive) | > 100 µM (inactive) | 46.8 µM (inactive) | > 100 µM (inactive) | > 100 µM (inactive) | 29.7 µM (inactive) | > 100 µM (inactive) | > 100 µM (inactive) | > 100 µM (inactive) | 88.9 µM (inactive)
10 | O=C(O)c1ccc(OCc2ccccc2)c(Cl)c1 | > 100 µM (inactive) | > 100 µM (inactive) | > 100 µM (inactive) | 20.2 µM (inactive) | > 100 µM (inactive) | > 100 µM (inactive) | > 100 µM (inactive) | 80.5 µM (inactive) | > 100 µM (inactive) | > 100 µM (inactive) | 14 µM (inactive) | > 100 µM (inactive) | > 100 µM (inactive) | > 100 µM (inactive) | > 100 µM (inactive) | > 100 µM (inactive) | > 100 µM (inactive) | > 100 µM (inactive) | > 100 µM (inactive)
11 | CC/C(Cl)=N\OC(=O)Nc1ccccc1OC(F)(F)F | 19.6 µM (inactive) | 22.6 µM (inactive) | 3.11 µM (inactive) | 1.89 µM (inactive) | 7 µM (inactive) | 19 µM (inactive) | 15.8 µM (inactive) | 19.4 µM (inactive) | 1.81 µM (inactive) | 14.9 µM (inactive) | 19.8 µM (inactive) | 1.73 µM (inactive) | 17.7 µM (inactive) | 20.2 µM (inactive) | 19.7 µM (inactive) | 26.4 µM (inactive) | 17.2 µM (inactive) | 17 µM (inactive) | 8.18 µM (inactive)
12 | COC(=O)C1OC(O[C@H]2CC[C@]3(C)[C@H]4CC=C5[C@@H]6CC(C)(C)CC[C@]6(C(=O)OC6OCC(O)C(O)C6OC6OC(C)C(OC7OCC(O)C(O)C7O)C(OC7OCC(O)(CO)C7O)C6O)[C@H](O)C[C@@]5(C)[C@]4(C)CC[C@H]3C2(C)C)C(O)C(O)C1O (stereo partly specified) | 1.76 µM (inactive) | 3.52 µM (inactive) | 2.64 µM (inactive) | 4.69 µM (inactive) | 2.77 µM (inactive) | 3.13 µM (inactive) | 12.1 µM (inactive) | 1.89 µM (inactive) | 5.13 µM (inactive) | 4.91 µM (inactive) | 4.98 µM (inactive) | 3.86 µM (inactive) | 2.56 µM (inactive) | 12.2 µM (inactive) | 6.27 µM (inactive) | 6.5 µM (inactive) | 2.96 µM (inactive) | 2.51 µM (inactive) | 1.81 µM (inactive)
13 | O=C(CCc1ccc(O)c(O)c1)NCCc1ccccc1 | > 100 µM (inactive) | 76.9 µM (inactive) | 31.8 µM (inactive) | 6.49 µM (inactive) | > 94.2 µM (inactive) | > 100 µM (inactive) | 50.9 µM (inactive) | 15.2 µM (inactive) | 12.7 µM (inactive) | 40.4 µM (inactive) | 14.6 µM (inactive) | 6.1 µM (inactive) | 32.7 µM (inactive) | 65.8 µM (inactive) | > 48 µM (inactive) | 75 µM (inactive) | > 79.4 µM (inactive) | 24.5 µM (inactive) | 10.2 µM (inactive)
14 | COC(=O)C1CCC(=S)N1C(=O)c1ccccc1 (stereo unspecified) | > 100 µM (inactive) | > 100 µM (inactive) | > 100 µM (inactive) | > 100 µM (inactive) | 87.3 µM (inactive) | > 100 µM (inactive) | > 100 µM (inactive) | > 100 µM (inactive) | 26.5 µM (inactive) | > 100 µM (inactive) | > 100 µM (inactive) | > 100 µM (inactive) | > 100 µM (inactive) | > 100 µM (inactive) | > 100 µM (inactive) | > 100 µM (inactive) | > 100 µM (inactive) | > 100 µM (inactive) | > 100 µM (inactive)
